Test results reported in US9675714B1, “Graphene based theranostics for tumor targeted drug/gene delivery and imaging” (University of South Florida, priority 2013, dated 2017).

Tested on: A549 lung cancer cells
Assay: Cellular uptake and intracellular drug release by confocal laser scanning microscopy
Type: cell-based
Details: 20 h incubation
Description: FIGS. 15A-15F show confocal microscopic images of A549cells after 20 h incubation with doxorubicin (15A-15C) or doxorubicin-CMG nanoparticles (15D-15F). […] Nuclei were stained with DAPI as a control (15A and […]). DAPI and doxorubicin images were merged for comparison (15C-15F).
To test the drug delivery capacity of CMG NPs, DOX was loaded into CMG nanoparticles by physical adsorption. The UV-Vis spectrum of DOX-CMG nanoparticles was used to confirm the loading of DOX onto CMG nanoparticles. […] DOX loading was confirmed by the presence of the characteristic absorbance peak of DOX-CMG at 485 nm (FIG. 12,b), which corresponded to the peak of free DOX (FIG. 12,c). The hydrodynamic diameter of DOX-loaded CMG nanoparticles was about 91 nm and was similar to the CMGs alone (FIGS. 5A-5F). The loading capacity of CMG nanoparticles for DOX was investigated by mixing a fixed concentration of CMG (2 mg/mL) with various initial DOX concentrations as shown in FIG. 13. […] The drug-release kinetics of DOX-CMG nanoparticles was determined at pH about 5.1 and about 7.4 (FIG. 14). […] To determine the effectiveness of the DOX-CMG nanoparticles in killing A549 cancer cells, cells were treated with DOX-CMG nanoparticles with increasing concentrations of DOX, or free DOX, for about 72 h and analyzed using the Presto Blue cell viability assay.

COc1cccc2c1C(=O)c1c(O)c3c(c(O)c1C2=O)C[C@@](O)(C(=O)CO)C[C@@H]3O[C@H]1C[C@H](N)[C@H](O)[C@H](C)O1 [DOX, doxorubicin]
subcellular localization of DOX: concentrated in the nuclei
